# Data as given in patent US20130217713A1, “PREDICTIVE MARKER FOR EGFR INHIBITOR TREATMENT” (Hoffmann-La Roche Inc., priority 2007, published 2013).
# Like-named read-outs stand apart in the source and are kept apart here.
# Key:
# [1] = tested on: NSCLC; settings: second line therapy of NSCLC; cited from earlier work
# [2] = tested on: NSCLC; settings: cited from earlier work
# [3] = tested on: NSCLC; settings: single agent, NSCLC patients after failure of standard therapy for advanced disease; cited from earlier work
# [4] = patients with cancer, 150 mg/day; compared with targeted average plasma concentration; cited from earlier work
# [5] = tested on: advanced NSCLC; settings: 75 patients with qRT-PCR results
smiles,measurement,setting,value
Nc1nc2[nH]cc(CCc3ccc(C(=O)N[C@@H](CCC(=O)O)C(=O)O)cc3)c2c(=O)[nH]1 [pemetrexed],efficacy compared with docetaxel,[1],clinically equivalent efficacy
same,side effects compared with docetaxel,[1],significantly fewer side effects
CC(=O)O[C@@]12CO[C@@H]1C[C@H](O)[C@@]1(C)C(=O)[C@H](O)C3=C(C)[C@@H](OC(=O)[C@H](O)[C@@H](NC(=O)OC(C)(C)C)c4ccccc4)C[C@@](O)([C@@H](OC(=O)c4ccccc4)[C@H]21)C3(C)C [docetaxel],"survival, third-line treatment or beyond",[2]; docetaxel as third-line treatment or beyond,no prolongation of survival
same,survival,"[2]; second line after cisplatin-based first-line regimens failed, ECOG 0, 1 or 2",improved survival
"C#Cc1cccc(Nc2ncnc3cc(OCCOC)c(OCCOC)cc23)c1 [Tarceva, erlotinib]",survival,[3],significantly prolongs and improves the survival
same,drug levels in plasma,[4],> 500 ng/mL
same,PD,[5],39 (52%) n (%)
same,partial response (PR),[5],4 (5%) n (%)
